From patent US10385065B2, “Antibacterial compounds” (priority 2014, dated 2019)
≈ marks a conversion by molar mass, not a printed value. Read-outs that look alike come from different tables or passages of the source.

Assays:
Assay type in all cases: cell-based
[1] = test system: human hepatic cell line (HepG2 ATCC HB-8065); assay: Human cell viability assay (CellTiter-Glo), HepG2; conditions: HepG2, 24 h incubation, tested over 1-128 μg/mL, read-out: IC50 values against HepG2
Procedure: Compounds are assessed for potential non-specific cytotoxic effects against a human hepatic cell line (HepG2 ATCC HB-8065). HepG2 cells are seeded at 20,000 cells/well in 96-well microtitre plates in minimal essential medium (MEM) supplemented with a final concentration of 10% FBS and 1 mM sodium pyruvate. After 24 h compound dilutions are prepared in Dulbecco's minimum essential media (DMEM) supplemented with final concentrations of 0.001% FBS, 0.3% bovine albumin and 0.02% HEPES and added to cells. Compounds are tested in two-fold serial dilutions over a final concentration range of 1-128 μg/mL in a final DMSO concentration of 1% vol/vol. Chlorpromazine is used as a positive control. Cells are incubated with compound at 37° C. and 5% CO2 for a further 24 h, after which time the CellTiter-Glo reagent (Promega) is added. Luminescence is measured on a BMG Omega plate reader. Data are analysed using GraphPad Prism software to determine the concentration of compound that inhibits cell viability by fifty percent (IC50).

[2] = test system: Haemophilus influenzae ATCC 49247; assay: MIC, H. influenzae ATCC 49247; conditions: ATCC49247, Table 4
[3] = test system: Enterococcus faecium ATCC 19434; assay: MIC, E. faecium ATCC 19434; conditions: ATCC19434, Table 2
[4] = test system: Staphylococcus aureus ATCC 29213; assay: MIC, broth microdilution, S. aureus ATCC 29213
[5] = test system: Escherichia coli ATCC 25922; assay: MIC, broth microdilution, E. coli ATCC 25922; conditions: ATCC25922, Table 1, wild type strain
[6] = ATCC29213, Table 1, wild type strain, read-out: MIC S. aureus ATCC 29213
[7] = ATCC 29213 / MSSA, Table 2, read-out: MIC S. aureus (MSSA) ATCC 29213 CLSI control strain

SMILES | IC50 [1] [µg/mL] | MIC [2] [µg/mL] | MIC [3] [µg/mL] | MIC [4, 6] [µg/mL] | MIC [4, 7] [µg/mL] | MIC [5] [µg/mL]
O=C(O)c1cn(C2CC2)c2cc(N3CCNCC3)c(F)cc2c1=O [Ciprofloxacin, reference compound] | > 100 | – | – | – | – | –
Cc1nc2c(=O)n(C3CC3)c3c(C)c(-c4cnn(C5CNC5)c4)ccc3c2o1 [Compound 12, 7-[1-(azetidin-3-yl)pyrazol-4-yl]-5-cyclopropyl-2,6-dimethyl-oxazolo[4,5-c]quinolin-4-one] | – | 1 to 10 (≈ 2.66 to 26.6 µM) | > 100 | 1 to 10 (≈ 2.66 to 26.6 µM) | > 100 | 10 to 100 (≈ 26.6 to 266 µM)
Cc1nc2c(=O)n(C3CC3)c3c(C)c(-c4cc(F)c(O)cc4F)ccc3c2o1 [Compound 32, 5-cyclopropyl-7-(2,5-difluoro-4-hydroxy-phenyl)-2,6-dimethyl-oxazolo[4,5-c]quinolin-4-one] | – | 1 to 10 (≈ 2.62 to 26.2 µM) | 10 to 100 (≈ 26.2 to 262 µM) | < 1 | < 1 | 1 to 10 (≈ 2.62 to 26.2 µM)
C[C@H]1COc2c(-c3cnc(N)nc3)ccc3c4ocnc4c(=O)n1c23 [Compound 94, (2S)-6-(2-aminopyrimidin-5-yl)-2-methyl-4,11-dioxa-1,13-diazatetracyclo[7.6.1.0^5,^16.0^10,^14]hexadeca-5(16),6,8,10(14),12-pentaen-15-one] | – | 1 to 10 (≈ 2.98 to 29.8 µM) | 10 to 100 (≈ 29.8 to 298 µM) | 1 to 10 (≈ 2.98 to 29.8 µM) | 1 to 10 (≈ 2.98 to 29.8 µM) | 10 to 100 (≈ 29.8 to 298 µM)
Cc1nc2c(=O)n(C3CC3)c3c(C)c(-c4ccc(N)c(F)c4)ccc3c2o1 [Compound 13] | – | > 100 | > 100 | < 1 | < 1 | > 100
COc1ccc(-c2cc3c(cc2F)c2ocnc2c(=O)n3C2CC2)cc1 [Compound 63, 5-cyclopropyl-8-fluoro-7-(4-methoxyphenyl)oxazolo[4,5-c]quinolin-4-one] | – | > 100 | > 100 | > 100 | > 100 | > 100
CC(=O)c1cc(F)c(-c2cc3c(cc2F)c2oc(C)nc2c(=O)n3C2CC2)cc1F [Compound 77, 7-(4-acetyl-2,5-difluoro-phenyl)-5-cyclopropyl-8-fluoro-2-methyl-oxazolo[4,5-c]quinolin-4-one] | – | > 100 | > 100 | 10 to 100 (≈ 24.3 to 243 µM) | 10 to 100 (≈ 24.3 to 243 µM) | > 100
CC(=O)c1ccc(-c2ccc3c4ocnc4c(=O)n(C4CC4)c3c2C)nc1 [Compound 42, 7-(5-acetylpyridin-2-yl)-5-cyclopropyl-6-methyl-oxazolo[4,5-c]quinolin-4-one] | – | > 100 | > 100 | 10 to 100 (≈ 27.8 to 278 µM) | 10 to 100 (≈ 27.8 to 278 µM) | > 100
Cc1c(-c2ccc(C(=O)O)cc2)ccc2c3oc(CN)nc3c(=O)n(C3CC3)c12 [Compound 102, 4-[2-(aminomethyl)-5-cyclopropyl-6-methyl-4-oxo-oxazolo[4,5-c]quinolin-7-yl]benzoic acid] | – | 10 to 100 (≈ 25.7 to 257 µM) | > 100 | 1 to 10 (≈ 2.57 to 25.7 µM) | 1 to 10 (≈ 2.57 to 25.7 µM) | > 100
O=c1c2ncoc2c2cc(F)c(-c3ccc(C(F)(F)F)nc3)cc2n1C1CC1 [Compound 60, 5-cyclopropyl-8-fluoro-7-[6-(trifluoromethyl)-3-pyridyl]oxazolo[4,5-c]quinolin-4-one] | – | 1 to 10 (≈ 2.57 to 25.7 µM) | > 100 | 10 to 100 (≈ 25.7 to 257 µM) | 10 to 100 (≈ 25.7 to 257 µM) | > 100
Cc1c(-c2cnc(N)nc2)ccc2c3oc(CN)nc3c(=O)n(C3CC3)c12 [Compound 103, 2-(aminomethyl)-7-(2-aminopyrimidin-5-yl)-5-cyclopropyl-6-methyl-oxazolo[4,5-c]quinolin-4-one] | – | < 1 | 10 to 100 (≈ 27.6 to 276 µM) | 1 to 10 (≈ 2.76 to 27.6 µM) | 1 to 10 (≈ 2.76 to 27.6 µM) | 1 to 10 (≈ 2.76 to 27.6 µM)
CCn1c(=O)c2ncoc2c2cc(F)c(-c3ccc(N)nc3)c(C)c21 [Compound 106, 7-(6-amino-3-pyridyl)-5-ethyl-8-fluoro-6-methyl-oxazolo[4,5-c]quinolin-4-one] | – | 10 to 100 (≈ 29.6 to 296 µM) | > 100 | 10 to 100 (≈ 29.6 to 296 µM) | 10 to 100 (≈ 29.6 to 296 µM) | > 100
O=c1c2ncoc2c2cc(F)c(-c3cc(F)c(CO)cc3F)cc2n1C1CC1 [Compound 68, 5-cyclopropyl-7-[2,5-difluoro-4-(hydroxymethyl)phenyl]-8-fluoro-oxazolo[4,5-c]quinolin-4-one] | – | < 1 | > 100 | < 1 | < 1 | 1 to 10 (≈ 2.59 to 25.9 µM)
Cc1c(-c2cnc(N)cn2)ccc2c3ocnc3c(=O)n(C3CC3)c12 [Compound 6, 7-(5-aminopyrazin-2-yl)-5-cyclopropyl-6-methyl-oxazolo[4,5-c]quinolin-4-one] | – | > 100 | > 100 | 10 to 100 (≈ 30 to 300 µM) | 10 to 100 (≈ 30 to 300 µM) | > 100
CN(C)C(=O)c1ccc(-c2cc3c(cc2F)c2ocnc2c(=O)n3C2CC2)cc1 [Compound 66, 4-(5-cyclopropyl-8-fluoro-4-oxo-oxazolo[4,5-c]quinolin-7-yl)-N,N-dimethyl-benzamide] | – | 10 to 100 (≈ 25.5 to 255 µM) | > 100 | 1 to 10 (≈ 2.55 to 25.5 µM) | 1 to 10 (≈ 2.55 to 25.5 µM) | > 100
Cc1nc2c(=O)n3c4c(c(N5CCN(C)CC5)c(F)cc4c2o1)OC[C@@H]3C [Compound 91] | – | 1 to 10 (≈ 2.69 to 26.9 µM) | > 100 | 10 to 100 (≈ 26.9 to 269 µM) | 10 to 100 (≈ 26.9 to 269 µM) | 10 to 100 (≈ 26.9 to 269 µM)
NC1C2CN(c3nc4c(cc3F)c3ocnc3c(=O)n4C3CC3)CC12 (stereo not drawn) [Compound 82, 7-(6-amino-3-azabicyclo[3.1.0]hexan-3-yl)-5-cyclopropyl-8-fluoro-oxazolo[4,5-c][1,8]naphthyridin-4-one] | – | 10 to 100 (≈ 29.3 to 293 µM) | > 100 | 10 to 100 (≈ 29.3 to 293 µM) | 10 to 100 (≈ 29.3 to 293 µM) | 1 to 10 (≈ 2.93 to 29.3 µM)
Cc1c(-c2ccccc2)ccc2c3ocnc3c(=O)n(C3CC3)c12 [Compound 7, 5-cyclopropyl-6-methyl-7-phenyl-oxazolo[4,5-c]quinolin-4-one] | – | 10 to 100 (≈ 31.6 to 316 µM) | 10 to 100 (≈ 31.6 to 316 µM) | 1 to 10 (≈ 3.16 to 31.6 µM) | 1 to 10 (≈ 3.16 to 31.6 µM) | > 100
Cc1nc2c(=O)n(C3CC3)c3cc(-c4ccc(C=O)cc4)c(F)cc3c2o1 [Compound 72, 4-(5-cyclopropyl-8-fluoro-2-methyl-4-oxo-oxazolo[4,5-c]quinolin-7-yl)benzaldehyde] | – | 1 to 10 (≈ 2.76 to 27.6 µM) | > 100 | 10 to 100 (≈ 27.6 to 276 µM) | 10 to 100 (≈ 27.6 to 276 µM) | > 100
Cc1c(-c2cc(F)c(C(=O)O)cc2F)ccc2c3ocnc3c(=O)n(C3CC3)c12 [Compound 47, 4-{5-cyclopropyl-6-methyl-4-oxo-oxazolo[4,5-c]quinolin-7-yl}-2,5-difluorobenzoic acid] | – | > 100 | > 100 | 10 to 100 (≈ 25.2 to 252 µM) | 10 to 100 (≈ 25.2 to 252 µM) | > 100
CCn1c(=O)c2ncoc2c2cc(F)c(-c3cc(F)c(N)cc3F)c(C)c21 [Compound 104, 7-(4-amino-2,5-difluoro-phenyl)-5-ethyl-8-fluoro-6-methyl-oxazolo[4,5-c]quinolin-4-one] | – | 10 to 100 (≈ 26.8 to 268 µM) | 10 to 100 (≈ 26.8 to 268 µM) | 1 to 10 (≈ 2.68 to 26.8 µM) | 1 to 10 (≈ 2.68 to 26.8 µM) | > 100
CCn1c(=O)c2ncoc2c2cc(F)c(-c3cc(N)c(F)cc3F)c(C)c21 [Compound 105, 7-(5-amino-2,4-difluoro-phenyl)-5-ethyl-8-fluoro-6-methyl-oxazolo[4,5-c]quinolin-4-one] | – | 10 to 100 (≈ 26.8 to 268 µM) | 10 to 100 (≈ 26.8 to 268 µM) | 10 to 100 (≈ 26.8 to 268 µM) | 10 to 100 (≈ 26.8 to 268 µM) | 10 to 100 (≈ 26.8 to 268 µM)
N#Cc1c(F)cc(-c2cc3c(cc2F)c2ocnc2c(=O)n3C2CC2)cc1F [Compound 65, 4-(5-cyclopropyl-8-fluoro-4-oxo-oxazolo[4,5-c]quinolin-7-yl)-2,6-difluoro-benzonitrile] | – | 10 to 100 (≈ 26.2 to 262 µM) | > 100 | 1 to 10 (≈ 2.62 to 26.2 µM) | 1 to 10 (≈ 2.62 to 26.2 µM) | > 100
Nc1ccc(-c2cc3c(cc2F)c2ocnc2c(=O)n3C2CC2)cn1 [Compound 70, 7-(6-amino-3-pyridyl)-5-cyclopropyl-8-fluoro-oxazolo[4,5-c]quinolin-4-one] | – | > 100 | > 100 | 10 to 100 (≈ 29.7 to 297 µM) | 10 to 100 (≈ 29.7 to 297 µM) | > 100
Cc1c(-c2ccc3[nH]nnc3c2)ccc2c3ocnc3c(=O)n(C3CC3)c12 [Compound 44, 7-(1H-1,2,3-benzotriazol-5-yl)-5-cyclopropyl-6-methyl-oxazolo[4,5-c]quinolin-4-one] | – | > 100 | > 100 | > 100 | > 100 | > 100
Cc1nc2c(=O)n(C3CC3)c3cc(N4CCC(O)C4)c(F)cc3c2o1 (stereo not drawn) [Compound 53, 5-cyclopropyl-8-fluoro-7-(3-hydroxypyrrolidin-1-yl)-2-methyl-oxazolo[4,5-c]quinolin-4-one] | – | 1 to 10 (≈ 2.91 to 29.1 µM) | > 100 | 10 to 100 (≈ 29.1 to 291 µM) | 10 to 100 (≈ 29.1 to 291 µM) | 10 to 100 (≈ 29.1 to 291 µM)
